From US20250268873A1, “COMBINATION OF DUAL ATM AND DNA-PK INHIBITORS AND IMMUNOTHERAPEUTIC AGENTS FOR USE IN CANCER THERAPY” (XRAD THERAPEUTICS, INC., priority 2021, published 2025)

How the values were obtained:
[1] = molecular target: hERG channel (Homo sapiens (Human), UniProt Q12809); test: In-Vitro hERG Inhibition Assay (manual patch clamp); format: cell-based; conditions: hERG-T-REx HEK 293 cells
Method: The hERG-T-REx™ HEK 293 cells (Invitrogen, K1236) were generated by transfecting the hERG coding sequence in the Tet-regulated expression vector pT-Rex-DEST30 into cells expressing the Tet-repressor (T-Rex™ HEK293), thereby producing cells that can be induced to express high level of hERG channels. The cells were cultured in a medium containing of 85% DMEM, 10% dialyzed FBS, 0.1 mM NEAA, 25 mM HEPES, 100 U/mL Penicillin-Streptomycin, 5 μg/mL Blasticidin, and 400 μg/mL Geneticin. The cells were split using TrypLE™ Express (Gibco, 12604) about three times a week and maintained between ˜40% to ˜80% confluence. Before the assay, the cells were induced with doxycycline (Sigma, D9891) at 1 μg/mL for 48 hours. On the experiment day, the induced cells were resuspended and plated onto the coverslips at 5×10^5 cells/per 6 cm cell culture dish prior to use. The hERG channel-mediated current was acquired by manual patch clamp recording systems equipped with amplifiers (HEKA, EPC10 and Molecular Devices, multiclamp 700B) and the inverted phase contrast microscope (Olympus, IX51/71/73). Glass pipettes were prepared by micropipette puller (Sutter, P97 and Narishige, PC-10) and qualified by the pipette resistance in the range of 2-4 MOhms. […] The whole-cell configuration was maintained with access resistance continuously monitored (<15 MOhms). […]

[2] = tested on: MC38 tumors; test: MC38 syngeneic murine tumor model; format: in vivo; conditions: for Day 20 regression: p<0.05
Method: The murine colon adenocarcinoma cell line, MC38-NCI.TD1 (MC38), was cultured in Dulbecco's modified Eagle's medium (DMEM), 10% fetal bovine serum (FBS), 25 μg/ml gentamicin, 2 mM L-glutamine, 1% penicillin/streptomycin/L-glutamine at 37° C. in 5% CO2. Cells were dissociated in 0.25% trypsin/2.21 mM ethylenediaminetetraacetic acid in Hank's Balanced Salt Solution and brought to a density of 5×10^6 cells/200 μL in DMEM. Tumors were initiated by injection of the cell suspension subcutaneously in the right axilla of female C57BL/6 mice (Jackson Laboratory). All mice were sorted into 7 study groups (n=10) based on caliper estimation of tumor burden. Mice were distributed to ensure that the mean tumor burden for all groups was within 10% of the overall mean tumor burden for the study population (90 mm^3). Mice were monitored daily for clinical signs and weighed and measured three times weekly. The study endpoint was 30 days post staging or when tumor burden was >2000 mm^3.
The vehicle for compound 569 was 0.5% hydroxypropyl methyl cellulose (HPMC) and 0.1% Tween 80 dissolved in deionized water. Vehicle for compound 569 and compound 569 (12 mg/kg) were administered by oral gavage once daily starting the day of staging for two consecutive days (qd×2), in combination with focal radiation. Mice stratified to the radiation therapy groups received 5 Gy per day for two consecutive days (qd×2) 60 minutes following administration of the vehicle or compound 569. The mice were anesthetized with isoflurane during the radiation treatment, which was performed with the Xstrahl Life Sciences Small Animal Radiation Research Platform (Xstrahl, Inc.) Mice were irradiated at an average dose rate of 2.5 Gy/min.
The vehicle for isotype control (clone 2A3) anti-mouse PD-1 (anti-mPD-1; Bio X Cell) and anti-mPD-1 (Clone RMP1-14; Bio X Cell) was phosphate buffered saline (PBS). Isotype control anti-mPD-1 (10 mg/kg) and anti-mPD-1 (10 mg/kg) were administered intraperitonealy twice weekly for 2 weeks starting day 2 post staging. Treatment schedules for the various groups of animals are summarized below: • Group 1 mice received vehicle qd×2+10 mg/kg isotype control (q3d×2, 3 days off)×2; start 2 days post stage. • Group 2 mice received 10 mg/kg anti-mPD-1 (q3d×2, 3 days off)×2; start 2 days post stage. • Group 3 mice received focal irradiation 5 Gy qd×2+10 mg/kg isotype control (q3d×2, 3 days off)×2; start 2 days post stage. • Group 4 mice received focal irradiation 5 Gy qd×2+10 mg/kg anti-mPD-1 (q3d×2, 3 days off)×2; start 2 days post stage. • Group 5 mice received 12 mg/kg Compound 569 qd×2 (1 hr prior to focal irradiation)+5 Gy qd×2 • Group 6 mice received 12 mg/kg Compound 569 qd×2+10 mg/kg anti-mPD-1 (q3d×2, 3 days off)×2; start 2 days post stage. • Group 7 mice received 12 mg/kg Compound 569 qd×2 (1 hr prior to focal irradiation)+5 Gy qd×2+10 mg/kg anti-mPD-1 (q3d×2, 3 days off)×2; start 2 days post stage.
• ΔC and ΔT—Are individual mouse endpoints that are calculated for each mouse as follows:
[formula] • Where Tt and T0 are the tumor burdens of a treated mouse at time t or at the initiation of dosing, respectively. ΔC reflects similar calculations for the control mice. • Median ΔT/ΔC—Is a group endpoint. It is calculated for each day of treatment as:
[formula] • The results are presented as a %. When the median ΔT/ΔC is negative (the median treated tumor burden is regressing), the median ΔT/ΔC is not reported and the Median % Regression is reported instead. • % Regression—Is a group endpoint. It indicates the percentage reduction in the Median tumor volume from baseline. It is calculated as: […]
Day 20 post staging was chosen for ΔT/ΔC since it was the last day all animals were on study prior to euthanasia due to tumor burden. • Complete Regression (CR)—An animal is credited a complete regression if its tumor burden is reduced to an immeasurable volume at any point after the first treatment. […]

[3] = Group 5: compound 569 12 mg/kg qd×2 + radiation 5 Gy qd×2
[4] = Group 7: compound 569 + radiation + anti-mPD-1

hERG channel, sequence (Q12809 whole entry): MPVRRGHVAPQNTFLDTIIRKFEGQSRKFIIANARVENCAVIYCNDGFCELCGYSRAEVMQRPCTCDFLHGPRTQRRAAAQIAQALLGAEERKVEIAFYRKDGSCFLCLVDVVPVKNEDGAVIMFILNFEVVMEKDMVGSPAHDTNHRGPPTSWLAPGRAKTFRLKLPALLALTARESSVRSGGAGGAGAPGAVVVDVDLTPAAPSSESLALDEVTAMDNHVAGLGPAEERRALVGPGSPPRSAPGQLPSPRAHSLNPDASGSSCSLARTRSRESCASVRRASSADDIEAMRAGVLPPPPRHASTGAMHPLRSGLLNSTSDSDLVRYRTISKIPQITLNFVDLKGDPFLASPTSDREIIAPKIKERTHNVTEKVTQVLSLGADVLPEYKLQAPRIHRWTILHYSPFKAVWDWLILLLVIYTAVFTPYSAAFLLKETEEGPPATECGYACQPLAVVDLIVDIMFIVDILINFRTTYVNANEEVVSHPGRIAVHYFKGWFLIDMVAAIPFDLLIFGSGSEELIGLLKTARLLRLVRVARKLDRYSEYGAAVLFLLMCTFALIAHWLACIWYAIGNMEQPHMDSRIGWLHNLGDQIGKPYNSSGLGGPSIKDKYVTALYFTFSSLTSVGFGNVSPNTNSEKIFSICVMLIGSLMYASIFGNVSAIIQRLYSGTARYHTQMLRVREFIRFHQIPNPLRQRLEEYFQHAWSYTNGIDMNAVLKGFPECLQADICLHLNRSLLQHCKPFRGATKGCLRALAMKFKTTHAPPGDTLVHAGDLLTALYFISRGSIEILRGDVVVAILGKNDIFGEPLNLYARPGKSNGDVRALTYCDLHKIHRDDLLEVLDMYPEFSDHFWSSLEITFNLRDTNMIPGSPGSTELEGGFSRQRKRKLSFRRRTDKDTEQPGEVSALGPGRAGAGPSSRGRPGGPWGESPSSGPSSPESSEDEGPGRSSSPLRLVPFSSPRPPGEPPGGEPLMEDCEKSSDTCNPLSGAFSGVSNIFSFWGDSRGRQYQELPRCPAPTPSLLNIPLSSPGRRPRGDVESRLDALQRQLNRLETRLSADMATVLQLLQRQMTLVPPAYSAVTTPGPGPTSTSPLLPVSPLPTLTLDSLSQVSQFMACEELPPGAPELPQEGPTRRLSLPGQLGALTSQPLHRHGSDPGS

CC(C)NCCOc1ncc(-c2cc3c4c(cnc3cc2F)N(C)C(=O)C42CCC2)cc1NS(C)(=O)=O [Compound 569, N-(5-(7′-Fluoro-3′-methyl-2′-oxo-2′,3′-dihydrospiro[cyclobutane-1,1′-pyrrolo[2,3-c]quinolin]-8′-yl)-2-(2-(isopropylamino)ethoxy)pyridin-3-yl)methanesulfonamide]
IC50 [1]: > 30 µM
incidence of complete regressions (CR) [2, 3]: 50%
incidence of tumor free survivors (TFS) [2, 3]: 30%
Day 20 regression [2, 3]: 22%
Day 20 median ΔT/ΔC ([2]; Group 6: compound 569 12 mg/kg po qd×2 + anti-mPD-1 10 mg/kg ip, p>0.05): 64%
incidence of death ([2]; Group 6: compound 569 12 mg/kg qd×2 + anti-mPD-1 10 mg/kg, 1 death, n=10): 10%
Day 20 regression ([2]; Group 7: compound 569 12 mg/kg qd×2 + radiation 5 Gy qd×2 + anti-mPD-1 10 mg/kg): 99%
incidence of complete regressions (CR) [2, 4]: 90%
incidence of tumor free survivors (TFS) [2, 4]: 90%
